# Laboratory results as given in US4463007A, “Triazoloquinazolinones, and compositions and methods for treating allergic disorders with them” (BASF Aktiengesellschaft, priority 1981, dated 1984).
# Tested on: PCA in rats
# Assay: Passive cutaneous anaphylaxis (PCA) in rats, anti-allergic action, oral administration
# Format: in vivo, rat
# Conditions: Rattus norvegicus; oral; dose which reduces diameter of color patch by 50% relative to non-medicated controls; read-out: Inhibition of PCA in rats, ED 50%
# Description: The anti-allergic action was tested on rats, using the passive cutaneous anaphylaxis (PCA) model.
# Narcotized male rats (100 to 140 g) are sensitized by intradermal injection (into the shaved dorsal skin) of 0.1 ml of an ovalbumin antiserum. After a sensitization period of about 48 hours, the treatment (intraperitoneal or oral administration) is carried out with various dosages (10 animals/dose)of the test substances. 15-20 minutes after treatment, an antigen/Evans blue mixture (10 mg/kg of ovalbumin in 2% strength Evans blue solution) is injected intravenously into the test animals. 30 minutes later, the animals are sacrificed, the dorsal skin is removed and the diameter of the circular blue coloration is measured on the inner surface. The size of the color patches of untreated control animals can be standardized. Anti-allergic substances reduce the diameter of the color patch by an amount dependent on the dose. The ED 50% is quoted as the dose which reduces the diameter of the color patch by 50% relative to that of non-medicated control animals. In addition to the anti-allergic action, the acute toxicity was determined for intraperitoneal administration, using groups of 2 NMRI mice, each weighing 20-26 g, and for oral administration, using groups of 2 Sprague-Dawley rats, each weighing 120-150 g. The LD 50 was determined on groups of 10 NMRI mice, each weighing 20-26 g, after intraperitoneal administration. The post-observation period was 14 days.
row,SMILES,ED50
1,"O=C(O)c1cc(=O)c2c(OCC(O)COc3cccc4oc(C(=O)O)cc(=O)c34)cccc2o1 [Cromolyne, reference compound]",> 100 mg/kg
2,"CCOC(=O)c1nc2c3ccccc3n(C)c(=O)n2n1 [Example 13, Ethyl 6-methyl-1,2,4-triazolo[1,5-c]quinazolin-5-one-2-carboxylate]",0.518 mg/kg
3,"CCOC(=O)c1nc2c3ccccc3n(CC)c(=O)n2n1 [Example 14, Ethyl 6-ethyl-1,2,4-triazolo[1,5-c]quinazolin-5-one-2-carboxylate]",0.707 mg/kg
4,"CCOC(=O)c1nc2c3cc(C)ccc3n(CC)c(=O)n2n1 [Example 17, Ethyl 6-ethyl-9-methyl-1,2,4-triazolo[1,5-c]quinazolin-5-one-2-carboxylate]",0.271 mg/kg
5,"CCOC(=O)c1nc2c3cc(Cl)ccc3n(C)c(=O)n2n1 [Example 20, Ethyl 9-chloro-6-methyl-1,2,4-triazolo[1,5-c]quinazolin-5-one-2-carboxylate]",0.723 mg/kg
6,"CCOC(=O)c1nc2c3cc(C)ccc3n(C)c(=O)n2n1 [Example 25, Ethyl 6,9-dimethyl-1,2,4-triazolo[1,5-c]quinazolin-5-one-2-carboxylate]",0.617 mg/kg
7,"CCOC(=O)c1nc2c3cc(C)c(C)cc3n(C)c(=O)n2n1 [Example 27, Ethyl 6,8,9-trimethyl-1,2,4-triazolo[1,5-c]quinazolin-5-one-2-carboxylate]",1 mg/kg
8,"CCOC(=O)c1nc2c3cc(C)c(C)cc3n(CC)c(=O)n2n1 [Example 28, Ethyl 8,9-dimethyl-6-ethyl-1,2,4-triazolo[1,5-c]quinazolin-5-one-2-carboxylate]",0.876 mg/kg
9,"O=c1[nH]c2ccccc2c2cc(CO)nn12 [Pirquinozol, reference compound]",1.19 mg/kg

# Same assay, conditions: oral doses of up to 100 mg/kg; PCA rats
row,SMILES,activity in oral doses (in words)
1,"O=C(O)c1cc(=O)c2c(OCC(O)COc3cccc4oc(C(=O)O)cc(=O)c34)cccc2o1 [Cromolyne, reference compound]",inactive

# Same assay, conditions: oral; PCA rats
row,SMILES,times more active than the comparative compound Pirquinozol
1,"CCOC(=O)c1nc2c3cc(C)ccc3n(CC)c(=O)n2n1 [Example 17, Ethyl 6-ethyl-9-methyl-1,2,4-triazolo[1,5-c]quinazolin-5-one-2-carboxylate]",4.4 times
2,"CCOC(=O)c1nc2c3cc(C)c(C)cc3n(C)c(=O)n2n1 [Example 27, Ethyl 6,8,9-trimethyl-1,2,4-triazolo[1,5-c]quinazolin-5-one-2-carboxylate]",1.2 times

# Same assay, conditions: oral; PCA rats; Pirquinozol = 1.00
row,SMILES,R.A. (relative activity)
1,"CCOC(=O)c1nc2c3ccccc3n(C)c(=O)n2n1 [Example 13, Ethyl 6-methyl-1,2,4-triazolo[1,5-c]quinazolin-5-one-2-carboxylate]",2.29
2,"CCOC(=O)c1nc2c3ccccc3n(CC)c(=O)n2n1 [Example 14, Ethyl 6-ethyl-1,2,4-triazolo[1,5-c]quinazolin-5-one-2-carboxylate]",1.68
3,"CCOC(=O)c1nc2c3cc(C)ccc3n(CC)c(=O)n2n1 [Example 17, Ethyl 6-ethyl-9-methyl-1,2,4-triazolo[1,5-c]quinazolin-5-one-2-carboxylate]",4.39
4,"CCOC(=O)c1nc2c3cc(Cl)ccc3n(C)c(=O)n2n1 [Example 20, Ethyl 9-chloro-6-methyl-1,2,4-triazolo[1,5-c]quinazolin-5-one-2-carboxylate]",1.64
5,"CCOC(=O)c1nc2c3cc(C)ccc3n(C)c(=O)n2n1 [Example 25, Ethyl 6,9-dimethyl-1,2,4-triazolo[1,5-c]quinazolin-5-one-2-carboxylate]",1.92
6,"CCOC(=O)c1nc2c3cc(C)c(C)cc3n(C)c(=O)n2n1 [Example 27, Ethyl 6,8,9-trimethyl-1,2,4-triazolo[1,5-c]quinazolin-5-one-2-carboxylate]",1.19
7,"CCOC(=O)c1nc2c3cc(C)c(C)cc3n(CC)c(=O)n2n1 [Example 28, Ethyl 8,9-dimethyl-6-ethyl-1,2,4-triazolo[1,5-c]quinazolin-5-one-2-carboxylate]",1.36
8,"O=c1[nH]c2ccccc2c2cc(CO)nn12 [Pirquinozol, reference compound]",1.00
